From patent US5491236A, “(1,2N) and (3,2N)-carbocyclic-2-amino tetralin derivatives” (The Upjohn Company, priority 1991, dated 1996)
Structures can show the parent of a compound that is named as a salt. Blank lines part the entries; values can stand above or below the molecule they belong to.

How the values were obtained:
[1] = BP SND/MAX: blood pressure of chloralose anesthetized cats; format: in vivo; details: for % BP Control: blood pressure in percent control at the dose causing 50% depression in SND, cats i.v.; for Max. Decr. BP (at SND ED50): maximum reduction in blood pressure as percent of control, 0.001-1.0 mg/kg i.v., cats
Method: BP SND/MAX: The blood pressure of the chloralose anesthetized cats in percent control at the dose causing 50% depression in SND and the maximum reduction in blood pressure as percent of the control blood pressure in the same animals observed in the dose range tested (0.001-1.0 mg/kg i.v.).

[2] = tested on: Sympathetic Nerve Discharge; assay: Sympathetic Nerve Discharge (SND) in chloralose anesthetized cats; format: in vivo; details: for Max. Decr. SND %: maximum inhibition of sympathetic activity in dose range 0.001-1.0 mg/kg i.v., cats
Method: Sympathetic Nerve Discharge (SND): The i.v. mg/kg dose causing a 50% depression in SND in chloralose anesthetized cats and the maximum inhibition of sympathetic activity observed in the dose range tested (0.00 1-1.0 mg/kg i.v. ).

[3] = tested on: 5-HT1A receptor; assay: Selectivity, IC50 ratio of dopamine D2 to 5-HT1A in vitro binding; details: result in words
Excerpt: (§1) The compounds of this invention where R1 is in 8-position in the aromatic ring are very selective 5-HT1A receptor agonists having generally little or no dopaminergic activity. […] The compound of this invention where R1 is in 5-position in the aromatic ring, on the other hand, have dopaminergic activity with little 5-HT1A agonist activity. […] These compounds are particularly effective anxiolytic and antidepressant agents. Other uses for these compounds include panic attacks, obsessive-compulsive disturbances, and senile dementia particularly the emotional disturbances seen in dementia disorders. In addition, central 5 -HT receptor activation are believed to be involved in mediating sexual behavior. These compounds would be useful to stimulate sexual activity and to alleviate impotence. The compounds of this invention are also useful to alleviate aggressive behavior, confusional delirious states.

[4] = biological target: T1, 5-hydroxytryptamine (5-HT1A) receptor (Bos taurus, UniProt F6Q2H9); assay: Inhibition of 8-OH-DPAT binding in a bovine brain homogenate (5-HT1A binding)
T1 construct: from tissue; host or cells: bovine brain homogenate
T1 sequence (F6Q2H9 1-422): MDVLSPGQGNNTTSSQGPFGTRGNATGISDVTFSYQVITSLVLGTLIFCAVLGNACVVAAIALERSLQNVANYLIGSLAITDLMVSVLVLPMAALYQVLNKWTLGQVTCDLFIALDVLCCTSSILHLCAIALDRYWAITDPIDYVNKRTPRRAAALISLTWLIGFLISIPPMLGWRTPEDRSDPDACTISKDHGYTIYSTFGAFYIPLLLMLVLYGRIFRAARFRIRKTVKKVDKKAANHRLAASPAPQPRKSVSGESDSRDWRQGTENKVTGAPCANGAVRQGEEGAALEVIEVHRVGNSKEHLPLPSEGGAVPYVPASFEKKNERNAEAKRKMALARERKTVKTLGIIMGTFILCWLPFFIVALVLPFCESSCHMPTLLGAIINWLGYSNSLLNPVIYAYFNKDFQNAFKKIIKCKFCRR
Excerpt: Binding: Inhibition of 8-OH-DPAT binding in a bovine brain homogenate. Potency is given as nM dose required to inhibit 50% of DPAT binding (IC50). This test measures ability to bind to 5-hydroxytryptamine (5-HT1A) receptor.

[5] = Hypothermia in mice (s.c.); format: in vivo; details: subcutaneous, dose required to depress temperature by 2° C. in two of four mice; for ED50: Mus musculus, sc
Method: Hypothermia: Starting with a dose of 30 mg/kg, four mice are injected subcutaneously with test compound. Twenty minutes later, the number of animals whose body temperature has decreased by 2° C. or more are counted. If all four animals reach criteria, the drug is considered "active", and subsequent readings are taken at 60 and 120 minutes after drug. The time for last statistically significant drug affect on mean body temperature is indicated in minutes. […] Potency is given as mg/kg ED50 (dose required to depress temperature in two of four mice) as measured by Spearman-Karber statistics.

[6] = tested on: 5-HT1A receptor; assay: 5-HT1A agonist activity; details: result in words
Excerpt: as §1

[7] = tested on: dopamine; assay: Dopamine activity (evaluation of dopamine and serotonin metabolites); details: result in words
Excerpt: as §1

[8] = Chem. Ab., 79: 146294b; cited from earlier work
[9] = J. Pharm. Sci., 67, 880-82 (1978); cited from earlier work
[10] = tested on: dopamine receptors; details: background, result in words; cited from earlier work
[11] = some patients; result in words; cited from earlier work
[12] = tested on: dopamine autoreceptors; details: background, result in words; cited from earlier work
[13] = man, low doses; result in words; cited from earlier work

Molecule: C=CCN1CC[C@@H]2c3ccccc3CC[C@@H]21.Cl (racemic) [Example 4 Compound #1, Cis-(+-)-2,3,3a,4,5,9b-hexahydro-3-(2-propenyl)-1H-benz[e]indole hydrochloride]
% BP Control [1]: 76% | Max. Decr. BP (at SND ED50) [1]: 60% | ED50 ([2]; Felis catus, iv, i.v. dose causing 50% depression in SND, chloralose anesthetized cats): 0.09 mg/kg | Max. Decr. SND % [2]: 0.0%

Molecule: C=CCN1CC[C@@H]2c3c(cccc3OC)CC[C@@H]21 (racemic) [Example 4 Compound #2, cis-(+-)-2,3,3a,4,5,9b-hexahydro-9-methoxy-3-(2-propenyl)-1H-benz[e]indole hydrochloride]
selectivity for the 5-HT1A receptor [3]: demonstrates the selectivity for the 5-HT1A receptor | IC50 [4]: 2.8 nM | ED50 [5]: 2.3 mg/kg

Molecule: C=CCN1CC[C@@H]2c3cccc(OC)c3CC[C@@H]21.Cl (racemic) [Example 4 Compound #3, Cis-(+-)-2,3,3a,4,5,9b-hexahydro-6-methoxy-3-(2-propenyl)-1H-benz[e]indole hydrochloride]
5-HT1A agonist activity [6]: low 5-HT1A agonist activity | dopamine activity ([7]; hydrochloride): good selective dopamine activity | dopamine activity ([7]; listed as Example 4, compound #3, hydrochloride): selective dopamine antagonist activity | IC50 [4]: 628 nM | ED50 [5]: 30 mg/kg

Molecule: C=CCN1[C@H](C)C[C@H]2c3c(O)cccc3CC[C@H]21 (relative stereo) [Example 2 Compound #1, (+-)-2α,3,3a,α,4,5,9b,α-hexahydro-2-methyl-3-(2-propenyl)-1H-benz[e]indol-9-ol hydrochloride]
IC50 [4]: 0.96 nM | ED50 [5]: 5.5 mg/kg

Molecule: CN(C)C1CCc2ccc(O)cc2C1(C)C (stereo not drawn) [1,1-Dimethyl-2-(N,N-dimethylamino)-7-hydroxytetralin]
analgesic and intestinal movement accelerating actions [8]: analgesic and intestinal movement accelerating actions

Molecule: COc1cccc2c1CCC(NC1CC1)C2C (stereo not drawn) [1-methyl-2-(cyclopropylamino)-5-methoxytetralin]
local anesthetic activity [9]: local anesthetic activity

Molecule: O=C1CC2(CCCC2)CC(=O)N1CCCCN1CCN(c2ncccn2)CC1 [Buspirone]
dopamine receptor antagonism [10]: antagonizes dopamine receptors at the same dose it stimulates 5-HT1A receptors

Molecule: CC1(C)CC(=O)N(CCCCN2CCN(c3ncccn3)CC2)C(=O)C1 [Gepirone]
dopamine receptor antagonism [10]: dopamine antagonist properties | effects on depressive endpoints [11]: ameliorative effects on some depressive endpoints in some patients

Molecule: CN1CCc2cccc3c2[C@H]1Cc1ccc(O)c(O)c1-3 [apomorphine]
activation of dopamine autoreceptors and post synaptic dopamine receptors [12]: able to activate the dopamine autoreceptors as well as the post synaptic dopamine receptors | anti-psychotic and anti-dyskinetic effects [13]: anti-psychotic and anti-dyskinetic effects in man

IC50 [4]: 14.8 nM
Molecule: (+-)-1,2,2a,-3,4,8b-hexahydro-8-methoxy-2-(prop-2-en-1-yl)-naphtho[2, 1-B]azetidine hydrochloride [Example 5 Compound #1]
% BP Control [1]: 77% | Max. Decr. BP (at SND ED50) [1]: 59% | SND ED50 ([2]; i.v. dose causing 50% depression in SND, chloralose anesthetized cats): 0.083 mg/kg | Max. Decr. SND % [2]: 14.0% | Hypothermia ED50 [5]: 4.1 mg/kg
